Data set [1] relates to Candida albicans. Kind of data set: Antifungal activity against wild-type Candida albicans SC5314 assessed as inhibition of fungal growth measured after 24 hrs by CLSI based microtiter plate analysis. In kind it is functional.
Data set [2] concerns Candida albicans. Kind of data set: Antifungal activity against clinical isolate Candida albicans YEM13 overexpressing efflux pump MdrL assessed as inhibition of fungal growth measured after 24 hrs by CLSI based microtiter plate analysis. In kind it is functional.
Data set [3] relates to Candida albicans. As to the kind of experiment: Antifungal activity against clinical isolate Candida albicans YEM15 overexpressing efflux pump CdrL and Cdr2 assessed as inhibition of fungal growth measured after 24 hrs by CLSI based microtiter plate analysis. In kind it is functional.
The test system of data set [4] is Candida albicans. As to the kind of experiment: Antifungal activity against clinical isolate Candida albicans SCUPC2R14MPG2A harbouring UPC2 mutation overexpressing […] Erg11 assessed as inhibition of fungal growth measured after 24 hrs by CLSI based microtiter plate analysis. In kind it is functional.
Data set [5] has as its system Candida albicans. Kind of data set: Antifungal activity against clinical isolate Candida albicans SCMRRIR34MPG2A harbouring MRR1 mutation overexpressing efflux pump MdrL assessed as inhibition of fungal growth measured after 24 hrs by CLSI based microtiter plate analysis. The data set is classed as functional.
For data set [6], the system named is Candida albicans. Kind of data set: Antifungal activity against clinical isolate fluconazole-resistant Candida albicans DSY296 harbouring TAC1 mutation overexpressing efflux pump CdrL and Cdr2 assessed as inhibition of fungal growth measured after 24 hrs by CLSI based microtiter plate analysis. In kind it is functional.
Data set [7] concerns Candida albicans. As to the kind of experiment: Antifungal activity against clinical isolate fluconazole-resistant Candida albicans G5 harbouring MRR1 mutation overexpressing MdrL assessed as inhibition of fungal growth measured after 24 hrs by CLSI based microtiter plate analysis. In kind it is functional.
Data set [8] relates to Candida albicans. Kind of data set: Antifungal activity against clinical isolate fluconazole-resistant Candida albicans Gu5 harbouring TAC1 mutation overexpressing efflux pump CdrL and Cdr2 assessed as inhibition of fungal growth measured after 24 hrs by CLSI based microtiter plate analysis. In kind it is functional.
Data set [9] has as its system Candida albicans. Kind of data set: Antifungal activity against clinical isolate fluconazole-resistant Candida albicans CA632 assessed as inhibition of fungal growth measured after 24 hrs by CLSI based microtiter plate analysis. In kind it is functional.
The test system of data set [10] is [Candida] auris. As to the kind of experiment: Antifungal activity against clinical isolate fluconazole-resistant Candida auris CBS12774 assessed as inhibition of fungal growth measured after 24 hrs by CLSI based microtiter plate analysis. The data set is classed as functional. Particulars: Candidozyma auris.
The subject of data set [11] is [Candida] auris. As to the kind of experiment: Antifungal activity against clinical isolate fluconazole-resistant Candida auris CBS12776 assessed as inhibition of fungal growth measured after 24 hrs by CLSI based microtiter plate analysis. Particulars: Candidozyma auris. In kind it is functional.
In data set [12] the test system is Nakaseomyces glabratus. As to the kind of experiment: Antifungal activity against clinical isolate fluconazole-resistant Candida glabrata CG2 assessed as inhibition of fungal growth measured after 24 hrs by CLSI based microtiter plate analysis. The data set is classed as functional.
Data set [13] concerns Cryptococcus neoformans. Kind of data set: Antifungal activity against clinical isolate fluconazole-resistant Cryptococcus neoformans H99 assessed as inhibition of fungal growth measured after 24 hrs by CLSI based microtiter plate analysis. The data set is classed as functional.
Data set [14] relates to Candida tropicalis. Kind of data set: Antifungal activity against clinical isolate fluconazole-resistant Candida tropicalis CT10 assessed as inhibition of fungal growth measured after 24 hrs by CLSI based microtiter plate analysis. In kind it is functional.
Data set [15] in a line: Drug accumulation in wild-type Candida albicans SC5314 at 50 microg/ml incubated for 3 hrs by HPLC analysis. In kind it is ADME. Particulars: dose 50 µg/ml.
Data set [16] is described as follows: Induction of DNA damage in human HBE cells assessed as increase in gammaH2AX level at 2 to 8 microg/ml by Western blotting analysis. In kind it is toxicity, cell-based. Conditions: dose 2-8 µg/ml.
For data set [17], the system named is Candida albicans. As to the kind of experiment: microbe, parasite or virus in culture. The data set is classed as functional. Particulars: DSY654, time 24 hrs.
Description: Antifungal activity against efflux pump-deficient Candida albicans DSY654 assessed as inhibition of fungal growth measured after 24 hrs by CLSI based microtiter plate analysis
The nature of data set [18]: Cytotoxicity against human HBE cells assessed as inhibition of cell growth measured after 4 hrs by MTT assay. The data set is classed as toxicity, cell-based. A general note: Tetrazolium dyes change colour on reduction, which living cells bring about.
A short description of data set [19]: Cytotoxicity against mouse L929 cells assessed as inhibition of cell growth measured after 4 hrs by MTT assay. In kind it is toxicity, cell-based.
Data set [20] is described as follows: Induction of hemolysis in mouse RBC cells at 2 to 32 microg/ml incubated for 60 mins by absorbance based analysis. In kind it is toxicity, cell-based, Erythrocyte. Particulars: red blood cells (erythrocytes), at 2 to 32 µg/mL, dose 2-32 µg/ml, read-out: Activity.
A short description of data set [21]: Induction of drug resistance in wild-type Candida albicans SC5314 assessed as change in MIC at 0.5 times of MIC measured after 30 passages by broth microdilution method (reference value: 2 microg/ml). The data set is classed as functional. In general terms: Dilution methods test growth across graded concentrations, often in twofold steps.
The nature of data set [22]: Induction of DNA damage in human HBE cells assessed as increase in gammaH2AX level at 8 microg/ml by Western blotting analysis. The data set is classed as toxicity, cell-based. Conditions: dose 8 µg/ml. (In general: Immunoblotting shows a protein as a band on a membrane.)
The test system of data set [23] is Candida albicans. As to the kind of experiment: Drug accumulation in Candida albicans SC5314 measured per 10^8 cells incubated for 3 hrs by HPLC analysis. In kind it is functional, organism-based.
Data set [24] can be described thus: Drug localization in mitochondria of Candida albicans SC5314 incubated for 30 mins by MitoTracker dye based confocal laser scanning microscopic analysis. In kind it is ADME. Conditions: 0.5 h.
The mark [25] stands for this setting: Candida albicans, SC5314, 24 h, read-out: MIC80.
[26] abbreviates: Candida albicans, SC5314, read-out: MIC80.

Values after ≈ are worked out from the molar mass of the structure shown. Active and inactive are the calls of the source. Where only a bound is given, the exact number is not on record here.

The MIC is the smallest concentration in the dilution series that meets the test's criterion for growth inhibition. Regarding `C[C@@]12CC[C@@H]3[C@](CC[C@H]4[C@@]3(C)CCC[C@@]4(C)C(=O)OCCCOc3ccc(C(=N)N)cc3)(CC1=O)C2`, the MIC entry in data set [1] is “inactive”. Moreover, the MIC80 in data set [1] (setting [25]) amounted to 4 µg/mL (≈ 8.09 µM); in data set [2], 4 µg/mL (≈ 8.09 µM); in data set [3], 4 µg/mL (≈ 8.09 µM); in data set [4] it was 4 µg/mL (≈ 8.09 µM); in data set [5], 8 µg/mL (≈ 16.2 µM); in data set [6] it was 4 µg/mL (≈ 8.09 µM). Also, the MIC80 in data set [7] was 8 µg/mL (≈ 16.2 µM); in [8], 4 µg/mL (≈ 8.09 µM); in data set [9] it was 4 µg/mL (≈ 8.09 µM); in [10] it was 8 µg/mL (≈ 16.2 µM); in data set [11], 8 µg/mL (≈ 16.2 µM); in data set [12] it was 8 µg/mL (≈ 16.2 µM). Further, the MIC80 in data set [13] and in data set [14] was 4 µg/mL (≈ 8.09 µM) in each case. Further, the Drug uptake result in data set [15] is “Active”. Further, in data set [16], the Activity result is recorded as “Non-Toxic”.

What is called IC50 is the concentration that gives 50% inhibition. With `C=C1C[C@@]23CC[C@H]4[C@@](C)(CCC[C@@]4(C)C(=O)OCCCCC[n+]4c(C)cc(N)c5ccccc54)[C@@H]2CC[C@]1(O)C3.[I-]`, the MIC80 in [17] turned out to be 4 µg/mL; in [1] (setting [26]), 8 µg/mL. For the same compound, the IC50 at 4 h was found to be 6.53 µg/mL in [18] and 8.34 µg/mL in data set [19]. Also, in data set [20], the hemolysis at 1 h is under 2%.

Regarding `OC(Cn1cncn1)(Cn1cncn1)c1ccc(F)cc1F` [FLUCONAZOLE], the MIC80 in [17] was 0.5 µg/mL (≈ 1.63 µM); in [1] (setting [25]) it was 2 µg/mL (≈ 6.53 µM); in data set [2], 64 µg/mL (≈ 209 µM); in [3] it was 64 µg/mL (≈ 209 µM); in [4], over 128 µg/mL; in data set [6], over 128 µg/mL. The MIC80 was over 128 µg/mL in data set [7]; over 128 µg/mL in data set [8]; over 128 µg/mL in data set [9]; over 128 µg/mL in data set [10]; over 128 µg/mL in data set [11]; 64 µg/mL (≈ 209 µM) in [12]. Further, the values for the MIC80 in [13] and in [14] were 2 µg/mL (≈ 6.53 µM) and over 128 µg/mL, respectively. The MIC in [21] is 128 µg/mL. For the same compound, the Activity entry in [22] is “Non-Toxic”.

Turning to `C=C1C[C@@]23CC[C@@H]4[C@](C)(CN)CCC[C@@]4(C)[C@@H]2CC[C@]1(O)C3`, the results for the MIC80 in data set [17] and in data set [1] (setting [26]) were 32 µg/mL (≈ 105 µM) and over 256 µg/mL, respectively. In addition, the Drug uptake result in data set [23] is “inactive”.

As to `CCN(CC)c1ccc2cc(C(=O)OCCCCCCCCOc3ccc(C(=N)N)cc3)c(=O)oc2c1`, the Drug uptake result in [24] is listed as “Active”.

Regarding `C=C1C[C@@]23CC[C@H]4[C@@](C)(CCC[C@@]4(C)C(=O)OCC[N+](C)(CC)CC)[C@@H]2CC[C@]1(O)C3.[I-]`, the MIC80 is 32 µg/mL in data set [17] and over 256 µg/mL in [1] (setting [26]). The Drug uptake entry in data set [23] was “inactive”.

Turning to `C=C1C[C@@]23CC[C@H]4[C@@](C)(CCC[C@@]4(C)C(=O)OCCCOc4ccc(C(=N)N)cc4)[C@@H]2CC[C@]1(O)C3`, the MIC80 is 2 µg/mL (≈ 4.04 µM) in data set [17]; 8 µg/mL (≈ 16.2 µM) in data set [1] (24 h); 4 µg/mL (≈ 8.09 µM) in data set [1] (setting [25]); 8 µg/mL (≈ 16.2 µM) in data set [2]; 8 µg/mL (≈ 16.2 µM) in data set [3]; 8 µg/mL (≈ 16.2 µM) in data set [4]. Besides, the MIC80 stood at 8 µg/mL (≈ 16.2 µM) in data set [5]; 8 µg/mL (≈ 16.2 µM) in data set [6]; 8 µg/mL (≈ 16.2 µM) in data set [7]; 8 µg/mL (≈ 16.2 µM) in data set [8]; 8 µg/mL (≈ 16.2 µM) in data set [9]; 16 µg/mL (≈ 32.3 µM) in [10]. The MIC80 came out at 16 µg/mL (≈ 32.3 µM) in data set [11], 8 µg/mL (≈ 16.2 µM) in data set [12], 16 µg/mL (≈ 32.3 µM) in [13] and 8 µg/mL (≈ 16.2 µM) in data set [14]. Moreover, the values for the IC50 at 4 h in data set [18] and in data set [19] were over 32 µg/mL and 23.6 µg/mL (≈ 47.7 µM), respectively. Further, the hemolysis at 1 h in data set [20] was under 2%. The Drug uptake result in data set [15] is given as “Active”.

Values taken from ChEMBL document CHEMBL5365543, “Benzamidine Conjugation Converts Expelled Potential Active Agents into Antifungals against Drug-Resistant Fungi” (J Med Chem, 2023).
